{"source": "paper PMC11744668", "about": "“2-Cyanopyrimidine-Containing Molecules for N-Terminal Selective Cyclization of Phage-Displayed Peptides” (ACS Chemical Biology, 2025)", "key": {"CA5C-sfGFP": {"test_system": "CA5C-sfGFP", "experiment": "Cyclization of CA5C-sfGFP with linkers (LC-ESI-MS)", "conditions": "100 μM linker, 3 h, 22 °C (RT), PBS pH 7.4, 1 mM TCEP", "method": "The designed organic linkers were tested for their ability to cyclize a CA5C peptide expressed as an N-terminal fusion to sfGFP (CA5C-sfGFP). Following reduction of the protein with 1 mM TCEP for 30 min, 100 μM compounds were reacted with the reduced CA5C-sfGFP for 3 h in PBS (pH 7.4). Following the reaction, the protein was analyzed via electrospray ionization mass spectrometry (ESI-MS) analysis to determine the desired adduct and any potential side reactions that occurred. […] This is likely due to the electron withdrawing effects of the nitrogen atoms adjacent to the nitrile in the 2-cyanopyrimidine derivatives. […] Following previously established Bayesian deconvolution of the mass spectra,[23] protein masses from each reaction (MW = 28,399 Da) corresponded well with that of the expected cyclic product (MW = 28,399 Da). […] This observed mass matches a TCEP-conjugated product resulting from a previously reported competing phospha-Michael addition of TCEP to the acrylamide moiety.[24] This product has a TCEP-functionalized linker that is nonreactive toward the internal cysteine (Figure 2A,B). Following these initial studies, we then further optimized the cyclization of CA5C-sfGFP using pCAmCP and mCAmCP by varying the reaction time, temperature, and concentration of linkers (Figure 2C).\nPurified CA5C-sfGFP was diluted to 500 nM in PBS (pH 7.4) containing 1 mM TCEP and left to incubate for 30 min at 37 °C. Linker (100 μM final concentration) or equivalent amounts of DMSO were then added to the solution, and it reacted at varying times (3 or 16 h) and temperatures (22 or 37 °C). All initial tests for reactivity were performed at 22 °C for 3 h, while linkers pCAmCP and mCAmCP were optimized with the additional conditions. The reaction mixtures were then concentrated and exchanged to ammonium bicarbonate (50 mM, pH 8.0) using an Amicon centrifugal filter (MWCO: 10 kDa). Samples were analyzed using a QExactive Orbitrap LC–MS System (Thermo Fisher) and deconvoluted using UniDec software.[23]"}, "[1]": {"target": "T1, ZNRF3 extracellular domain (ZNRF3-ECD) (Homo sapiens, UniProt Q9ULT6)", "T1 construct": "The ZNRF3 ECD was expressed and characterized exactly as previously described; SUMO (N, cleaved yes); made in house; host or cells: E. coli BL21, co-expressing BirA", "T1 sequence (Q9ULT6 56-219 limits assumed)": "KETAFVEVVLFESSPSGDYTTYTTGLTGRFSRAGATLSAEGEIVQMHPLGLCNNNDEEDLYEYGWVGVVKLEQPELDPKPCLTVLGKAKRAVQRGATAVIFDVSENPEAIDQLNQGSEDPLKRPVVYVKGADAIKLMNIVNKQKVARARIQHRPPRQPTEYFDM", "experiment": "Biolayer interferometry (BLI) binding to immobilized biotinylated ZNRF3-ECD", "conditions": "for Kd: streptavidin biosensors", "method": "The ZNRF3 ECD was expressed and characterized exactly as previously described.[38] Plasmid pET28a-SUMO-ZNRF3-Avi was cotransformed into E. coli (BL21) along with a plasmid expressing BirA. The cells were then inoculated into 2× YT containing 50 μg/mL kanamycin and 34 μg/mL chloramphenicol and grown at 37 °C until OD = 0.5. Expression was then induced by the addition of 1 mM IPTG and 50 μM biotin, and then the protein was expressed for 18 h at 16 °C. The cells were then pelleted (3750g, 15 min) and then resuspended in buffer A (50 mM Tris-HCl, 10% glycerol, 150 mM NaCl, and 25 mM imidazole, pH 7.5, 20 mL/liter of expression). The cells were then lysed by sonication (1 s on, 1 s off, 5 min, 60% A, repeated once), and the lysate was clarified by centrifugation (25,000g, 20 min). The supernatant was then incubated with a Ni-NTA column for 45 min at 4 °C. The column was then washed with 5 CV of buffer A before being eluted using 2 CV of buffer B (buffer A + 240 mM imidazole). The elution was then concentrated using an Amicon centrifugal filter before being desalted into buffer A on a HiPrep 26/10 column. The SUMO tag was then cleaved by the addition of 30 μg/mL SUMO protease and incubation for 48 h at 4 °C. The protein was then loaded onto a second Ni-NTA column for 45 min at 4 °C, and the flowthrough was collected and concentrated to 1 mL by centrifugation. Pure protein was then isolated using size exclusion chromatography (HiLoad 16/600, Superdex 75 pg) in buffer C (50 mM Tris-HCl, pH 7.5, 10% (v/v) glycerol, 150 mM NaCl, and 0.5 mM EDTA). Pure protein was stored in storage buffer (50 mM Tris-HCl, pH 7.5, 50% (v/v) glycerol, and 150 mM NaCl) at −80 °C before being used for assays.\nBiolayer interferometry (BLI) experiments were performed using streptavidin-coated biosensors (Sartorius Bio) on an Octet R8 biolayer interferometer (Sartorius Bio). All experiments were performed in assay buffer (10 mM HEPES, 150 mM NaCl, and 0.01% Tween 20, pH 7.5). Biotinylated ZNRF3 (28 μg/mL in assay buffer) was loaded onto the sensor to 4 nm of loading over 10 min, and then the sensors were quenched for one min with a 1% BSA solution in assay buffer. Peptides were serially diluted in assay buffer containing 0.8% DMF, and the association and dissociation to ZNRF3 were measured over 3 and 5 min, respectively. Between each experiment, sensors were regenerated using 10 mM glycine, pH 1.5. Binding curves were double-referenced against a protein-only sensor and a parallel unloaded sensor to correct for any nonspecific binding to the sensors. All curves were fit in the Octet Kinetic Analysis program (Sartorius Bio) using a 1:1 protein/ligand binding model."}, "[2]": {"target": "T1, ZNRF3 extracellular domain (ZNRF3-ECD)", "experiment": "Phage selection against ZNRF3-ECD, NGS enrichment, pCAmCP-cyclized library", "type": "binding", "source_text": "In addition to simply ensuring the cyclization potential on phage, we also looked to investigate the selection differences using two different linkers to macrocyclize the same initial peptide library. ZNRF3 is a membrane protein that contains an intracellular E3 ligase domain and has previously shown potential in promoting degradation of oncogenic membrane proteins, such as PDL1.[32] ZNRF3 also plays a major role in the regulation of the Wnt signaling cascade, which can modulate a variety of cell processes related to oncogenesis and cell differentiation.[33]−[36] […] Because it has an extracellular domain that can be easily accessible to macrocyclic peptides, we envisioned that a selection against the extracellular domain for ZNRF3 (ZNRF3-ECD) would afford peptides that could potentially be used in the development of proteolysis-targeting chimeras (PROTACs) for a variety of membrane proteins. We expressed and characterized a biotinylated ZNRF3-ECD using an Avi-Tag on the […] to facilitate the selection using streptavidin magnetic beads, as has been previously described (Figure S20).[38] […] To avoid the potential for enriching peptides that bind to the streptavidin resin, we alternated loading the protein using streptavidin and NHS-functionalized magnetic beads for the first three rounds of selection (Figure 5).\nThe purified phage library (10^11 to 10^12 cfu) in binding buffer was incubated with 1 mM TCEP at 37 °C. After 30 min, the linker (pCAmCP or mCAmCP, 10 mM in DMSO) was added to a final concentration of 100 μM. The solution was incubated for 24 h at RT with slow rotation. The library was then directly used for affinity selection without further purification.\nStreptavidin-coated magnetic beads (100 μL, 50% slurry, Cytiva Sera-Mag) were transferred to a 1.5 mL tube, washed three times with 1 mL of binding buffer (10 mM HEPES, 150 mM NaCl, 10 mM MgCl2, and 1 mM KCl, pH 7.4), resuspended in 100 μL of binding buffer, and split into two tubes. […]"}, "[3]": {"conditions": "10 mM HEPES, 150 mM NaCl, 0.01% Tween 20, pH 7.5, 0.8% DMF, 1:1 binding model, mean ± s.d., n = 3"}, "[4]": {"conditions": "10 mM HEPES, 150 mM NaCl, 0.01% Tween 20, pH 7.5, 0.8% DMF"}}, "note": "Entries after “also recorded” stand apart in the source; their conditions may differ. Starred links: 1 amine or outer side, 2 acyl side, 3 side chain; linkers in the order of their positions; H or OH if unused. Positions of bridges follow the written chain, without caps; N, C: chain ends. Non-standard residues stand in square brackets, D forms with d. Residues, ends and D or L forms follow the SMILES beside them. No end group written: not given here. X1 = O=C([C@@H]1CSC(c2ncc(N[*:1])cn2)=N1)[*:2]; Abu = CC[C@H](N)C(=O)O", "data": [{"compound": "C=CC(=O)Nc1ccnc(C#N)n1", "note": "[mAcCP]", "values": [{"measurement": "reactivity with / cyclization of CA5C-sfGFP (in words)", "setting": "CA5C-sfGFP", "result": "did not result in the expected CA5C-sfGFP cyclization"}]}, {"compound": "CC[C@H](C)[C@@H]1NC(=O)[C@H](Cc2ccccc2)NC(=O)[C@H](CCC(N)=O)NC(=O)[C@H](C)NC(=O)[C@H](C)NC(=O)[C@H](CC(N)=O)NC(=O)[C@@H]2CCCN2C(=O)[C@@H]2CSC(=N2)c2ncc(cn2)NC(=O)CSC[C@@H](C(N)=O)NC(=O)[C@H](C)NC(=O)[C@H](CCCNC(=N)N)NC(=O)[C@H](CO)NC(=O)[C@H](Cc2ccc(O)cc2)NC(=O)[C@H](CCCNC(=N)N)NC1=O", "note": "[Peptide Z27S3] ({CH2CO}-[X1]PNAAQFIRYSRAC-NH2; thioether N-14)", "values": [{"measurement": "Kd", "setting": "[1]; [3]", "result": "3.5 ± 0.3", "unit": "µM"}]}, {"compound": "C=CC(=O)Nc1cnc(C#N)nc1", "note": "[pAcCP]", "values": [{"measurement": "reactivity with / cyclization of CA5C-sfGFP (in words)", "setting": "CA5C-sfGFP", "result": "did not result in the expected CA5C-sfGFP cyclization"}]}, {"compound": "CC[C@H](C)[C@@H]1NC(=O)[C@H](Cc2ccccc2)NC(=O)[C@H](CCC(N)=O)NC(=O)[C@H](C)NC(=O)[C@H](C)NC(=O)[C@H](CC(N)=O)NC(=O)[C@@H]2CCCN2C(=O)[C@@H](N)CSSC[C@@H](C(N)=O)NC(=O)[C@H](C)NC(=O)[C@H](CCCNC(=N)N)NC(=O)[C@H](CO)NC(=O)[C@H](Cc2ccc(O)cc2)NC(=O)[C@H](CCCNC(=N)N)NC1=O", "note": "[Peptide Z27S3Disulf] (H-CPNAAQFIRYSRAC-NH2; disulfide 1-14)", "values": [{"measurement": "Kd", "setting": "[1]; [3]", "result": "4 ± 1", "unit": "µM"}]}, {"compound": "CC(C)C[C@@H]1NC(=O)[C@H](CCCCN)NC(=O)[C@H](CCC(N)=O)NC(=O)[C@H](CCCNC(=N)N)NC(=O)[C@H](Cc2c[nH]c3ccccc23)NC(=O)[C@H](C)NC(=O)[C@H](CCC(=O)O)NC(=O)[C@H](CC(C)C)NC(=O)[C@@H]2CCCN2C(=O)[C@H](CO)NC(=O)[C@H](CC(C)C)NC(=O)[C@H](Cc2c[nH]cn2)NC(=O)[C@@H]2CSC(=N2)c2ncc(cn2)NC(=O)CSC[C@@H](C(N)=O)NC1=O", "note": "[Peptide Z27S1] ({CH2CO}-[X1]HLSPLEAWRQKLC-NH2; thioether N-14)", "values": [{"measurement": "binding to ZNRF3 (in words)", "setting": "[1]; [4]", "result": "nanomolar affinity to ZNRF3"}, {"measurement": "Kd", "setting": "[1]; pH 7.5, 1:1 binding model, value as given in abstract", "result": 0.36, "unit": "µM"}, {"measurement": "fold increase in abundance after round 2", "setting": "[2]; enrichment after round 2", "result": "> 16,000 -fold"}, {"measurement": "presence in round 1 sequencing data (in words)", "setting": "[2]; round 1", "result": "not found in the round 1 sequencing data"}, {"measurement": "share of total sequences in round 4", "setting": "[2]; round 4, 69,462 total sequences", "result": 67, "unit": "%"}]}, {"compound": "C=CC(=O)Nc1cnc(C#N)cn1", "note": "[pAcCPy]", "values": [{"measurement": "reactivity with / cyclization of CA5C-sfGFP (in words)", "setting": "CA5C-sfGFP", "result": "essentially no reactivity with the protein"}]}, {"compound": "CC(C)C[C@@H]1NC(=O)[C@H](CCCCN)NC(=O)[C@H](CCC(N)=O)NC(=O)[C@H](CCCNC(=N)N)NC(=O)[C@H](Cc2c[nH]c3ccccc23)NC(=O)[C@H](C)NC(=O)[C@H](CCC(=O)O)NC(=O)[C@H](CC(C)C)NC(=O)[C@@H]2CCCN2C(=O)[C@H](CO)NC(=O)[C@H](CC(C)C)NC(=O)[C@H](Cc2c[nH]cn2)NC(=O)[C@@H](N)CSSC[C@@H](C(N)=O)NC1=O", "note": "[Peptide Z27S1Disulf] (H-CHLSPLEAWRQKLC-NH2; disulfide 1-14)", "values": [{"measurement": "Kd", "setting": "[1]; [3]", "result": "3 ± 2", "unit": "µM"}]}, {"compound": "[Abu]PNAAQFIRYSRA[Abu] [Peptide Z27S3Abu, Abu derivative of Z27S3]", "values": [{"measurement": "binding to ZNRF3 (in words)", "setting": "[1]; [4]", "result": "no binding to ZNRF3"}]}, {"compound": "CHLSPLEAWRQKLC (also: sidechain bridge or staple (positions not given here)) [Peptide Z27S1-mCP, Z27S1 cyclized with mCAmCP]", "values": [{"measurement": "binding to ZNRF3 (in words)", "setting": "[1]; [4]", "result": "No significant dose-dependent interactions were observed; also recorded: no significant binding to ZNRF3"}]}]}
